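Values below derive from 48-hour exposures of cells grown in 96-well plates, with endpoints linearly interpolated between the two concentrations bracketing the appropriate inhibition level. TGI: concentration producing complete growth inhibition.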
Key:
Assay in all cases: NCI tumour cell line growth inhibition, 48 h
ACHN renal = tested on: ACHN renal
UO-31 renal = tested on: UO-31 renal
CCRF-CEM leukemia = tested on: CCRF-CEM leukemia
A549 NSCLC = tested on: A549 NSCLC
SF-295 CNS = tested on: SF-295 CNS
SF-539 CNS = tested on: SF-539 CNS
A498 renal = tested on: A498 renal
KM20L2 colon = tested on: KM20L2 colon
UACC-62 melanoma = tested on: UACC-62 melanoma
MOLT-4 leukemia = tested on: MOLT-4 leukemia
TK-10 renal = tested on: TK-10 renal
NCI-H226 lung = tested on: NCI-H226 lung
SNB-78 CNS = tested on: SNB-78 CNS
NCI-H23 lung = tested on: NCI-H23 lung
SR leukemia = tested on: SR leukemia
NCI-H522 lung = tested on: NCI-H522 lung
HL-60(TB) leukemia = tested on: HL-60(TB) leukemia
OVCAR-3 ovarian = tested on: OVCAR-3 ovarian
RPMI-8226 leukemia = tested on: RPMI-8226 leukemia
SF-268 CNS = tested on: SF-268 CNS
SK-MEL-28 melanoma = tested on: SK-MEL-28 melanoma
HOP-62 NSCLC = tested on: HOP-62 NSCLC
LOX IMVI melanoma = tested on: LOX IMVI melanoma
SK-OV-3 ovarian = tested on: SK-OV-3 ovarian
NCI-H460 lung = tested on: NCI-H460 lung
HT29 colon = tested on: HT29 colon
RXF 393 renal = tested on: RXF 393 renal
OVCAR-4 ovarian = tested on: OVCAR-4 ovarian
K-562 leukemia = tested on: K-562 leukemia
M14 melanoma = tested on: M14 melanoma
EKVX NSCLC = tested on: EKVX NSCLC
OVCAR-8 ovarian = tested on: OVCAR-8 ovarian
SK-MEL-5 melanoma = tested on: SK-MEL-5 melanoma
UACC-257 melanoma = tested on: UACC-257 melanoma
HCC-2998 colon = tested on: HCC-2998 colon
HOP-18 NSCLC = tested on: HOP-18 NSCLC
U251 CNS = tested on: U251 CNS
KM12 colon = tested on: KM12 colon
DMS 114 small cell lung = tested on: DMS 114 small cell lung
SNB-75 CNS = tested on: SNB-75 CNS
SW-620 colon = tested on: SW-620 colon
786-0 renal = tested on: 786-0 renal
M19-MEL melanoma = tested on: M19-MEL melanoma
SNB-19 CNS = tested on: SNB-19 CNS
IGROV1 ovarian = tested on: IGROV1 ovarian
HOP-92 NSCLC = tested on: HOP-92 NSCLC
COLO 205 colon = tested on: COLO 205 colon
MALME-3M melanoma = tested on: MALME-3M melanoma
LXFL 529 NSCLC = tested on: LXFL 529 NSCLC
SN12C renal = tested on: SN12C renal
CAKI-1 renal = tested on: CAKI-1 renal
HCT-116 colon = tested on: HCT-116 colon
DLD-1 colon = tested on: DLD-1 colon
SK-MEL-2 melanoma = tested on: SK-MEL-2 melanoma
DMS 273 small cell lung = tested on: DMS 273 small cell lung
HCT-15 colon = tested on: HCT-15 colon
OVCAR-5 ovarian = tested on: OVCAR-5 ovarian
MDA-N = tested on: MDA-N
PC-3 prostate = tested on: PC-3 prostate
HS 578T breast = tested on: HS 578T breast
MDA-MB-435 = tested on: MDA-MB-435
MDA-MB-231 breast = tested on: MDA-MB-231 breast
BT-549 breast = tested on: BT-549 breast
MCF7 breast = tested on: MCF7 breast
DU-145 prostate = tested on: DU-145 prostate
NCI/ADR-RES ovarian = tested on: NCI/ADR-RES ovarian
T-47D breast = tested on: T-47D breast

Measured: TGI

Cc1ccc(N2C(=O)N(c3ccc(C)cc3)C3(SC=NN3C)C2=O)cc1 (stereo not given)
not listed: SK-MEL-2 melanoma | DMS 273 small cell lung | HCT-15 colon | OVCAR-5 ovarian | MDA-N | PC-3 prostate | HS 578T breast | MDA-MB-435 | MDA-MB-231 breast | BT-549 breast | MCF7 breast | DU-145 prostate | NCI/ADR-RES ovarian | T-47D breast
> 100 µM: all other assays above

Nc1nc(SCc2ccccc2Cl)c2[nH]cnc2n1
73.1 µM: A498 renal
67 µM: TK-10 renal
not listed: NCI-H226 lung | HT29 colon | OVCAR-4 ovarian | HOP-18 NSCLC | SNB-75 CNS | 786-0 renal | HOP-92 NSCLC | CAKI-1 renal | MDA-N | PC-3 prostate | HS 578T breast | MDA-MB-435 | MDA-MB-231 breast | BT-549 breast | MCF7 breast | DU-145 prostate | NCI/ADR-RES ovarian | T-47D breast
> 100 µM: all other assays above

CC1=NC(C)(COC(=O)C2(C)NC(C)(CO)CO2)COC1=O (stereo not given)
not listed: KM20L2 colon | SNB-78 CNS | HOP-18 NSCLC | DMS 114 small cell lung | M19-MEL melanoma | LXFL 529 NSCLC | DLD-1 colon | DMS 273 small cell lung
> 100 µM: all other assays above

CC(=O)SC(C[N+](=O)[O-])c1ccc2c(c1)OCO2 (stereo not given)
13 µM: U251 CNS
5.56 µM: HT29 colon
14.2 µM: BT-549 breast
17.6 µM: MDA-MB-435
19.8 µM: IGROV1 ovarian
> 82.5 µM: SF-268 CNS
26.1 µM: SF-295 CNS
15.8 µM: MALME-3M melanoma
15.6 µM: M14 melanoma
45.3 µM: HS 578T breast
3.41 µM: RXF 393 renal
18.3 µM: A498 renal
7.27 µM: SR leukemia
21.9 µM: ACHN renal
16.6 µM: OVCAR-3 ovarian
22.3 µM: MDA-MB-231 breast | UACC-257 melanoma
14.8 µM: SK-MEL-2 melanoma
34.6 µM: NCI-H23 lung | HOP-92 NSCLC
41.1 µM: SNB-75 CNS
33.7 µM: DU-145 prostate
4.67 µM: HL-60(TB) leukemia
26.2 µM: NCI-H460 lung
5.22 µM: HCT-116 colon
52.5 µM: EKVX NSCLC
24.1 µM: A549 NSCLC
12.7 µM: KM12 colon
28.9 µM: PC-3 prostate
8.95 µM: 786-0 renal
36.5 µM: HOP-62 NSCLC
21.5 µM: SNB-19 CNS
36.9 µM: COLO 205 colon
18.6 µM: CAKI-1 renal
28.1 µM: OVCAR-8 ovarian
11.1 µM: HCT-15 colon
3.47 µM: HCC-2998 colon
4.35 µM: LOX IMVI melanoma
16 µM: OVCAR-5 ovarian
5.14 µM: SF-539 CNS
4.64 µM: MDA-N
> 46.4 µM: CCRF-CEM leukemia
> 28.7 µM: K-562 leukemia
28.2 µM: TK-10 renal
14.7 µM: SN12C renal
19.9 µM: MOLT-4 leukemia | SK-MEL-5 melanoma
35.5 µM: NCI/ADR-RES ovarian
10.4 µM: NCI-H522 lung
46 µM: NCI-H226 lung
11.3 µM: UACC-62 melanoma
> 22.7 µM: RPMI-8226 leukemia
9.78 µM: SK-MEL-28 melanoma
6.93 µM: MCF7 breast
18 µM: SK-OV-3 ovarian
65.7 µM: T-47D breast
23.1 µM: OVCAR-4 ovarian
11.9 µM: UO-31 renal | SW-620 colon

CC(=O)NC1CONC1=O (stereo not given)
not listed: KM20L2 colon | SNB-78 CNS | HCC-2998 colon | HOP-18 NSCLC | DMS 114 small cell lung | M19-MEL melanoma | LXFL 529 NSCLC | DLD-1 colon | DMS 273 small cell lung
> 100 µM: all other assays above

Cc1c2ccc3ccccc3c2c[n+]2ccccc12
39.6 µM: OVCAR-8 ovarian
> 78.4 µM: LOX IMVI melanoma
> 64.1 µM: KM20L2 colon
24.8 µM: SF-295 CNS
48.7 µM: MOLT-4 leukemia
31 µM: SK-MEL-2 melanoma
5.09 µM: T-47D breast
33.9 µM: UACC-62 melanoma
14.3 µM: BT-549 breast | SNB-75 CNS
43.4 µM: SF-539 CNS
3.77 µM: MALME-3M melanoma
60.6 µM: UO-31 renal
20.7 µM: DMS 114 small cell lung
> 44.1 µM: EKVX NSCLC
15.9 µM: M19-MEL melanoma
40.2 µM: NCI-H460 lung
12 µM: KM12 colon
54.6 µM: K-562 leukemia
80.5 µM: SW-620 colon
25.8 µM: 786-0 renal
6.92 µM: SF-268 CNS
21.9 µM: SK-MEL-5 melanoma
35.4 µM: OVCAR-3 ovarian
35.2 µM: MDA-MB-435
> 87.3 µM: MCF7 breast
13.4 µM: SN12C renal
24.2 µM: LXFL 529 NSCLC
> 76 µM: DU-145 prostate
53.5 µM: SR leukemia
> 84.4 µM: RXF 393 renal
60.8 µM: HOP-92 NSCLC
37.5 µM: M14 melanoma
38.8 µM: OVCAR-4 ovarian
23.1 µM: SNB-19 CNS
45.7 µM: HOP-62 NSCLC
66.2 µM: RPMI-8226 leukemia
37.2 µM: CCRF-CEM leukemia
> 83.3 µM: HCT-116 colon
14.7 µM: NCI-H522 lung
15.3 µM: NCI-H23 lung
17.7 µM: HCC-2998 colon
> 50.2 µM: DMS 273 small cell lung
23.8 µM: UACC-257 melanoma
83.2 µM: SK-OV-3 ovarian
> 94.4 µM: A498 renal
> 82.3 µM: MDA-MB-231 breast
> 75.6 µM: HL-60(TB) leukemia
20.1 µM: NCI-H226 lung
14.9 µM: HS 578T breast
28.7 µM: SK-MEL-28 melanoma
19.8 µM: MDA-N
15.6 µM: U251 CNS
16.5 µM: COLO 205 colon
not listed: HOP-18 NSCLC
> 100 µM: all other assays above

COc1ccc(/C=N/n2cnc3c(c2=O)SC(=C(C#N)C#N)N3c2ccccc2)cc1
72.4 µM: SNB-75 CNS
not listed: A498 renal | KM20L2 colon | SNB-78 CNS | LOX IMVI melanoma | RXF 393 renal | OVCAR-4 ovarian | M14 melanoma | EKVX NSCLC | DMS 114 small cell lung | 786-0 renal | MALME-3M melanoma | SN12C renal | CAKI-1 renal | SK-MEL-2 melanoma | DMS 273 small cell lung | HCT-15 colon | MDA-N | PC-3 prostate | HS 578T breast | MDA-MB-435 | MDA-MB-231 breast | BT-549 breast | MCF7 breast | DU-145 prostate | NCI/ADR-RES ovarian | T-47D breast
> 100 µM: all other assays above
